Assay results published in ChEMBL document CHEMBL3880390, “Agents for preventing and treating disorders involving modulation of the RYR receptors” (2014).

Assays:
Ryanodine receptor 2 = Ryanodine receptor 2 (Homo sapiens, UniProt Q92736); assay: Induction of FKBP12.6 re-binding to PKA-phosphorylated-RyR2 (unknown origin) after 30 mins in presence of [35S]-FKBP12.6 by liquid scintillation counting
hERG (KCNH2) [1] = molecular target: T1, hERG (KCNH2) (Homo sapiens, UniProt Q12809); assay: Inhibition of human ERG expressed in HEK293 cells at 0.01 uM after 5 mins at -80 mV holding potential by patch clamp assay; type: cell-based; conditions: HEK293 cells expressing human ERG
hERG (KCNH2) [2] = molecular target: T1, hERG (KCNH2); assay: Inhibition of human ERG expressed in HEK293 cells at 0.1 uM after 5 mins at -80 mV holding potential by patch clamp assay; type: cell-based; conditions: HEK293 cells expressing human ERG
hERG (KCNH2) [3] = molecular target: T1, hERG (KCNH2); assay: Inhibition of human ERG expressed in HEK293 cells at 1 uM after 5 mins at -80 mV holding potential by patch clamp assay; type: cell-based; conditions: HEK293 cells expressing human ERG
hERG (KCNH2) [4] = molecular target: T1, hERG (KCNH2); assay: Inhibition of human ERG expressed in HEK293 cells at 10 uM after 5 mins at -80 mV holding potential by patch clamp assay; type: cell-based; conditions: HEK293 cells expressing human ERG
L-type calcium channel = L-type calcium channel (Mus musculus, UniProt Q01815+Q02789+Q99246+Q9JIS7); assay: Inhibition of L-type Ca2+ channel in mouse cardiomyocytes at holding potential of -80 or -40 mV by whole cell patch clamp assay; type: cell-based
[5] = Cardiotoxicity in haploinsufficient FKBP12.6 expressing mouse assessed as reduction in non-sustained ventricular tachycardia at 0.2 to 1 uM under testing exercise followed by epinephrine injection relative to control; type: toxicity; conditions: in vivo

Ryanodine receptor 2, sequence (Q92736 whole entry): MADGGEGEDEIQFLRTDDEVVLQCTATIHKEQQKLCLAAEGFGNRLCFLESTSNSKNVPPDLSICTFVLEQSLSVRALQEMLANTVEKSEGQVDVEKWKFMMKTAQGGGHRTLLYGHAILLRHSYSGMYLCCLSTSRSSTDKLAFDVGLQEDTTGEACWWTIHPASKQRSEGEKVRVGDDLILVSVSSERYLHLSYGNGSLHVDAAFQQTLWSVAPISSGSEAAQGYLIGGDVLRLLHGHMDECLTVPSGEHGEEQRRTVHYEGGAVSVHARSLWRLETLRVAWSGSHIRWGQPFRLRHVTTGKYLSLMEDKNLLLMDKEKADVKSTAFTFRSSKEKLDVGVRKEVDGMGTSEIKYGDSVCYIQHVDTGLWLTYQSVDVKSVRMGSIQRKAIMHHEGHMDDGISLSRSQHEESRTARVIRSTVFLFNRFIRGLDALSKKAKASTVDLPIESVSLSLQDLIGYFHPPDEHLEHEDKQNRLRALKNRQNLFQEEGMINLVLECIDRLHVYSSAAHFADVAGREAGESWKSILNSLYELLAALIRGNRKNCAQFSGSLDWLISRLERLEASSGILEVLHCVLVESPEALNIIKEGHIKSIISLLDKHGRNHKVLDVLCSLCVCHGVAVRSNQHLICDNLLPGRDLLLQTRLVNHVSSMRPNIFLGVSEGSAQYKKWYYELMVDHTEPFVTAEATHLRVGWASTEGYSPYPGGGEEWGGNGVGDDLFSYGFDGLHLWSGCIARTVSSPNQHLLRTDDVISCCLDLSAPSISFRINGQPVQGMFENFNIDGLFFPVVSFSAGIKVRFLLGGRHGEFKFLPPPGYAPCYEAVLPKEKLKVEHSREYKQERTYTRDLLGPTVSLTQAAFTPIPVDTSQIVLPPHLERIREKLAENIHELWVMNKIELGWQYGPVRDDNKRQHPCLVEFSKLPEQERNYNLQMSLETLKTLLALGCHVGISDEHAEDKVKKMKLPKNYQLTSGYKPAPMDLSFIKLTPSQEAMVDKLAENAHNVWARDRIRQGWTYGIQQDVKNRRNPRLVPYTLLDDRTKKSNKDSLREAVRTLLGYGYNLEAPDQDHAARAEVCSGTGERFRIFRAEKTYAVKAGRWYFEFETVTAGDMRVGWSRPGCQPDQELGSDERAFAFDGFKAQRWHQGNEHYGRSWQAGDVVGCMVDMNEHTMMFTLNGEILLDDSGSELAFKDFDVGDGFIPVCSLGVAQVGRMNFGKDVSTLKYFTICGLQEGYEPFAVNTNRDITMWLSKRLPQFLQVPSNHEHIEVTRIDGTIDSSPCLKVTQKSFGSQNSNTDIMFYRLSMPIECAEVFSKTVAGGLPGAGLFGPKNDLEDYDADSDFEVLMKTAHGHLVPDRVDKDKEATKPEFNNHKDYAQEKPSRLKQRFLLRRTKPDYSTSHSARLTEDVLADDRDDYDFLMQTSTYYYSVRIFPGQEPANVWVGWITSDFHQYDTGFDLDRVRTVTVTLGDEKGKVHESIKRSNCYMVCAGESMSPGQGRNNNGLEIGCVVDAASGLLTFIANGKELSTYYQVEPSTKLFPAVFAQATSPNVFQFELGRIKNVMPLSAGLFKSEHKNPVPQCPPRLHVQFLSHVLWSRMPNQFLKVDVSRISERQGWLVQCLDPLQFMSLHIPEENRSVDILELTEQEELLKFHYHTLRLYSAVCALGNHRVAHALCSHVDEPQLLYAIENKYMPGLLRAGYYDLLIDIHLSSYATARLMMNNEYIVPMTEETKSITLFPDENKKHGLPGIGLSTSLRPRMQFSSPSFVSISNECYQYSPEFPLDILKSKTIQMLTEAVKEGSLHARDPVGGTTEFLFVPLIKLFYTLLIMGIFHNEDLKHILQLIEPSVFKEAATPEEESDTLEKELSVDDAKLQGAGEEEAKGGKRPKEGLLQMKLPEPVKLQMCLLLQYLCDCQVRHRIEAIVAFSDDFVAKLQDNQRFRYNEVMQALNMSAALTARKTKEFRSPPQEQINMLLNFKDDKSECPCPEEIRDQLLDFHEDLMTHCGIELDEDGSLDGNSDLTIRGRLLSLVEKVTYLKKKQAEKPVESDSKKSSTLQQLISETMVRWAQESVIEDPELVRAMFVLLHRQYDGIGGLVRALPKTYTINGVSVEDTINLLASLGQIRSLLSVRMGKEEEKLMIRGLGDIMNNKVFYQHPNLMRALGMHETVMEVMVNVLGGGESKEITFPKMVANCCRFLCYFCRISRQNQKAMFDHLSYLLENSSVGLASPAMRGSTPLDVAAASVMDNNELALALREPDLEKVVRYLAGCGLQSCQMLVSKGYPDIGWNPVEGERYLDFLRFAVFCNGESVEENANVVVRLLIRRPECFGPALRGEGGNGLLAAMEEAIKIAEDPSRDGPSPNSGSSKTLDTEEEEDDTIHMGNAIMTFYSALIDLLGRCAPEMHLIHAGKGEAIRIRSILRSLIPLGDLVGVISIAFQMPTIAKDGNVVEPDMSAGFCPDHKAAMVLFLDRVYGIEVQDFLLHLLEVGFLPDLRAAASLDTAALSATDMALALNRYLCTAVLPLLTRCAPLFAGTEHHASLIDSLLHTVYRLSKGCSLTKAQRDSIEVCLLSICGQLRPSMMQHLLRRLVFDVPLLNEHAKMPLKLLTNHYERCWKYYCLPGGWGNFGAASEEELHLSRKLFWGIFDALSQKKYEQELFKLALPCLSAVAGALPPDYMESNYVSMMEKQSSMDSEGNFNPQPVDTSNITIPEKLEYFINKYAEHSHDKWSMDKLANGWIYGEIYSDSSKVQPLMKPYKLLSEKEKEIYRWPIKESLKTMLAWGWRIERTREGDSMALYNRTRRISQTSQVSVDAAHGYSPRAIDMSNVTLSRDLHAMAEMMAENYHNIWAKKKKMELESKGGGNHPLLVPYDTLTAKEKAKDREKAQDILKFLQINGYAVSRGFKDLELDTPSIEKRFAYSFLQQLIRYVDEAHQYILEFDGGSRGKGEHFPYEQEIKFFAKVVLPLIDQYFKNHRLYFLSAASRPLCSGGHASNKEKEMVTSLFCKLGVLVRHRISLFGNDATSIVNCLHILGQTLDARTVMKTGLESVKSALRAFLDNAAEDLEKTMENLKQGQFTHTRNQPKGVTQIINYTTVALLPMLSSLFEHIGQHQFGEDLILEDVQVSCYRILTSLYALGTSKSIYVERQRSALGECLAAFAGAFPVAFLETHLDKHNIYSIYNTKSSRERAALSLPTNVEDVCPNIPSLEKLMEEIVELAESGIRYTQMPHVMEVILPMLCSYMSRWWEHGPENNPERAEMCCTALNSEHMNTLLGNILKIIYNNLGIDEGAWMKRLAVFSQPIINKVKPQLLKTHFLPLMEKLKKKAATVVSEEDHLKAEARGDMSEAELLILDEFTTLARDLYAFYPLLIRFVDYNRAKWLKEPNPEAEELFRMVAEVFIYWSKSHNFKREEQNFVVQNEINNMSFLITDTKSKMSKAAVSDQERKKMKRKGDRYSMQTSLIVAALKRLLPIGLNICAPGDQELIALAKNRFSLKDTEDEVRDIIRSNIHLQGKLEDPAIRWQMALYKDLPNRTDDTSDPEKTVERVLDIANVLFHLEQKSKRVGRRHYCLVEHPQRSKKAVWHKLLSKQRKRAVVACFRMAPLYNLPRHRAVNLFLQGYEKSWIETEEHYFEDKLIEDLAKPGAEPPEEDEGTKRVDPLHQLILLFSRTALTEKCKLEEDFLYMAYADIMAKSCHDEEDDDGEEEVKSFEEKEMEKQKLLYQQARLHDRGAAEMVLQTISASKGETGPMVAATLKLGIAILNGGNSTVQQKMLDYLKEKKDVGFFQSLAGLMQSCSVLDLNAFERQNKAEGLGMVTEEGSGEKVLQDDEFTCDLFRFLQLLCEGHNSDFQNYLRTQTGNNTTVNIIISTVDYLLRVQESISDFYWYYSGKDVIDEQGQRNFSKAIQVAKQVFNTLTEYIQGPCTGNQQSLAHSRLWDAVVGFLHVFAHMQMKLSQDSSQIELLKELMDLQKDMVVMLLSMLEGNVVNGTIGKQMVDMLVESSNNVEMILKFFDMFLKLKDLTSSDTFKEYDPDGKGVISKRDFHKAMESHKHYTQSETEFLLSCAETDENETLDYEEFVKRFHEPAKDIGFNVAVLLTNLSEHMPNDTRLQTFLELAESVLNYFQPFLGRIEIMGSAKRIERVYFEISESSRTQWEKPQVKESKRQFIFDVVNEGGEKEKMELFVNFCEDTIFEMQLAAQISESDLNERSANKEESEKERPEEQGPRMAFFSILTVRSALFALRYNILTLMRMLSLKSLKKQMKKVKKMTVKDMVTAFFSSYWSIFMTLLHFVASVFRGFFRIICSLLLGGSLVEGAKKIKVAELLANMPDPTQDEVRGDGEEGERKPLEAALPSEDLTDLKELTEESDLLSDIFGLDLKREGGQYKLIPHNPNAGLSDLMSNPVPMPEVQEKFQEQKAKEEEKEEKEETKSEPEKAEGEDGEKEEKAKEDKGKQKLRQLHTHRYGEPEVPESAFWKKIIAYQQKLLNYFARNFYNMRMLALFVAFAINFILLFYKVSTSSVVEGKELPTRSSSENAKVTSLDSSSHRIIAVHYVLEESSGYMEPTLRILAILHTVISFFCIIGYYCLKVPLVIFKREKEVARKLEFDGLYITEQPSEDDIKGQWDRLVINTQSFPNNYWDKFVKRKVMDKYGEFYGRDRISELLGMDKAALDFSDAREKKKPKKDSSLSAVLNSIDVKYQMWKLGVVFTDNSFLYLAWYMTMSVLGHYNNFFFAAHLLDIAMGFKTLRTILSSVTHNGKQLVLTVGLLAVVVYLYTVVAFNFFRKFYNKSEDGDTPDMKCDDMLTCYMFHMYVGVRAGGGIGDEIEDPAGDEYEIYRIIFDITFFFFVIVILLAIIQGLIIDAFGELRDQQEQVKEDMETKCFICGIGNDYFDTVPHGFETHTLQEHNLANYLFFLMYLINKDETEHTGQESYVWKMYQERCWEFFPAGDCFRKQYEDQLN

| Compound | EC50 (Ryanodine receptor 2) [µM] | inhibition at 5 min, 0.01 µM (hERG (KCNH2) [1]) [%] | inhibition at 5 min, 0.1 µM (hERG (KCNH2) [2]) [%] | inhibition at 5 min, 1 µM (hERG (KCNH2) [3]) [%] | inhibition at 5 min, 10 µM (hERG (KCNH2) [4]) [%] | further results |
| --- | --- | --- | --- | --- | --- | --- |
| COc1ccc2c(c1)CN([P@](=O)(OC)c1ccccc1)CCS2 | 0.182 |  |  |  |  |  |
| COc1ccc2c(c1)CN(C(=O)N1CCN(Cc3ccc4c(c3)OCO4)CC1)CCS2 |  | 2.7 | 9.7 | 29.6 | 78 |  |
| COc1ccc2c(c1)CN(C(=O)C(=O)O)CCS2 [ALADORIAN SODIUM] |  | 0.2 | 6 | 5.5 | 6.7 |  |
| COC(=O)C1=C(C)NC(C)=C(C(=O)OC)C1c1ccccc1[N+](=O)[O-] [NIFEDIPINE] |  |  |  |  |  | inhibition (INH) (L-type calcium channel): Active |
| C=CC(=O)N1CCSc2ccc(OC)cc2C1 | 0.05 |  |  |  |  |  |
| c1ccc2c(c1)CNCCS2 | 0.1 |  |  |  |  |  |
| COc1ccc2c(c1)CN(C(=O)C(=O)O)CCS2 [ALADORIAN] |  |  |  |  |  | Activity [5]: Non-Toxic |
| O=C(O)C(=O)N1CCSc2ccccc2C1 |  | 1.3 | 7.5 | 3.6 | 4.1 |  |
| COc1ccc2c(c1)CN(C)CCS2 |  | 2.9 | 4 | 6.2 | 32.1 |  |
